US11459586B2, “Methods for increasing efficiency of nuclease-mediated gene editing in stem cells” (President and Fellows of Harvard College, priority 2016, dated 2022)

System: human iPSC
Assay: gene targeting (mThy1, mCD147) in hiPSC transiently transfected with Cas9-IRES-anti-apoptotic gene plasmids
Format: cell-based
Protocol: FIGS. 4A-D. Bcl-2 overexpression increases HR-mediated gene targeting in human iPSC when transiently transfected with the Cas9 nuclease. FIG. 4A. Mouse Thy1 gene targeting scheme. FIG. 4B. Plasmids were constructed to constitutively express Cas9 together with an anti-apoptotic gene (separated by an IRES) under the constitutively active EF1α promoter. Plain human iPSC were nucleofected with 0.5 μg of one of these Cas9 plasmids together with 2 μg of the mThy1 targeting vector and 1.5 μg of plasmids expressing the Thy1 Left, Right, both, or no sgRNAs (pUC19). Five days later, cells were analyzed by flow cytometry. FIG. 4C. Flow cytometry staining for mThy1 and hThy1 for the Cas9 only sample gated on live single cells; the percent of cells in each quadrant is indicated. […] FIG. 4D. Compiled gene editing frequencies. The percent of mThy1^+hThy1^− (bottom portion of each bar in the left, center, and right grafts), mThy1^+hThy1^+ (top portion of bars in the left and center graphs), and mThy1^−hThy1^− (top portion of bars in the right graph) cells is graphed for each indicated sample. Lines mark the percentages for the Cas9 only sample. Results are representative of two independent experiments.
FIGS. 8A-F. Wild type Bcl-2 improves gene targeting at various genomic loci across multiple hiPSC lines. FIG. 8A. Plasmids were constructed to constitutively express the Cas9 nuclease with a form of Bcl-2 (separated by an IRES), and a sgRNA. Three human iPSC lines were nucleofected with 2 μg of mThy1 or mCD147 targeting vector and 2 μg of “Cas9 sgRNA” or “Cas9 Bcl-2 sgRNA” expression plasmid. 5-9 days later, cells were analyzed by flow cytometry. FIG. 8B. Mouse Thy1 gene targeting scheme. FIG. 8C. Single amino acid mutations were generated for the Bcl-2 BH1 (G145A) or BH4 (Y28A) domains. Compiled gene editing frequencies for cells transfected with the Left, Right, or Both Thy1 sgRNAs. The percent of mThy1^+hThy1^− (bottom portion of each set of bars in each graph), mThy1^+hThy1^+ (top portion of left and center sets of bars in each graph and center portion of right set of bars in each graph), and mThy1^−hThy1^− (top portion of right set of bars in each graph) cells among the various samples is indicated. FIG. 8D. Mouse CD147 gene targeting scheme. FIG. 8E. Flow cytometry staining for mCD147 and hCD147 for retrovirally-derived PGP1 hiPSC transfected with “Cas9 sgRNA” or “Cas9 Bcl-2 sgRNA”. Samples are gated on live single cells; the percent of cells in each quadrant is indicated. FIG. 8F. Compiled gene editing frequencies for cells transfected with the Left, Right, or both CD147 sgRNAs. The percent of mCD147^+hCD147^− (bottom portion of each set of bars in each graph), mCD147^+hCD147^+ (top portion of left and center sets of bars in each graph and center portion of right set of bars in each graph), and mCD147^−hCD147^− (top portion of right set of bars in each graph) cells among the three hiPSC lines is indicated.
PCR reactions were done using polymerase sold under the trademark KAPA HIFI™ HotStart polymerase; primers and double-stranded DNA fragments sold under the trademark GBLOCKS® are from IDT. Plasmids were constructed using isothermal assembly, transformed into Stbl3 competent E. coli (Invitrogen), grown at 30° C., and verified by Sanger sequencing (Genewiz). Anti-apoptotic genes were obtained from previously published plasmids: Bcl-2 (Addgene plasmid #8793) and Bcl-xL (#8790) (Cheng et al., 2001); Bcl2A1 (#36973) (Pratt et al., 2012); and Mcl-1 (#21605) (Maurer et al., 2006). The dominant negative p53 sequence from Addgene plasmid #9058 (Hahn et al., 2002) was synthesized as a gBlock. These genes were cloned into the EF1α promoter-Cas9 nuclease plasmid after an IRES.
The U6 promoter-sgRNA (for each sgRNA sequence) was cloned into the EF1α promoter-Cas9 nuclease or EF1α promoter-Cas9 nuclease-IRES-Bcl-2 expression plasmids to form the “Cas9 only sgRNA” or “Cas9 Bcl-2 sgRNA” plasmids used in Examples 6 and 7. […]

Bcl-2: B cell lymphoma 2 protein, anti-apoptotic, overexpressed from lentivirus or Cas9 plasmid
gene targeting at the CD147 and Thy1 loci (Bcl-2 on the Cas9 plasmid, PGP4 hiPSC line): markedly improved gene targeting | mCD147 gene targeting frequencies (Bcl-2 on the Cas9 plasmid, retroviral and non-integrating PGP1 hiPSC lines): substantially and reproducibly increased gene targeting frequencies | mThy1 gene targeting, wild type vs mutant Bcl-2 (Cas9 Bcl-2 sgRNA plasmids, transient transfection): greatest enhancement | mThy1 gene targeting frequencies compared to Cas9 only controls (transient transfection of Cas9-IRES-anti-apoptotic factor plasmid): the only anti-apoptotic factor that increased gene targeting frequencies
